Legend:
enterovirus [1] = test: case report Example 5, treatment of chronic fatigue; type: in vivo, human
Description: A person developed debilitating fatigue, sore throat, oral ulcers, vertigo, headaches and cognitive dysfunction two months after having a flu-like illness. […] Approximately four years later, the patient started taking oxymatrine. After an initial increase of gastrointestinal symptoms for the first two weeks, the patient tolerated 500 mg per day of oxymatrine.
The symptoms continued for two weeks and resolved after stopping oxymatrine. […] They continued to improve for 12 months after taking the medication.

enterovirus [2] = test: case report Example 12, treating diarrhea; type: in vivo, human
Text: A person developed severe watery diarrhea for two months. Stool evaluation was unremarkable. […] They continued to do well for six months on the medication.

enterovirus [3] = test: case report Example 3, treatment of chronic fatigue; type: in vivo, human
Description: A person who had recurrent episodes of debilitating fatigue became totally incapacitated after approximately 17 years. The patient was treated with a combination of alpha and gamma interferon for six weeks with acceptable results. They went into remission but relapsed nine months later after developing a minor upper respiratory infection. They improved minimally after several months of bed rest, but was barely able to work six hours per day. They had brain fog, myalgia (7/10 pain) and was barely able to walk even 1-2 blocks.
Three days after taking oxymatrine at a dose of 300 mg bid, the myalgia intensified (10/10 pain), especially one hour after taking the pills. One week after starting oxymatrine, routine laboratory tests including CBC, chemistry panel and creatine phosphokinase (CPK) were normal. They continued having significant fatigue and myalgia for the next three weeks, but the symptoms resolved one week after stopping the medication. Mild increase in myalgia recurred three days after resuming oxymatrine, but resolved after continuing the medication for the next two weeks. The patient felt well at the end of three months with minimal discomfort in a few muscle groups.
Severe myalgia recurred after resuming vigorous exercise for three weeks while taking oxymatrine. They had to stop exercise for the two months allowing cessation of myalgia. After taking oxymatrine for six months, the patient felt well. Over the next six months after stopping the medication, the patient continuously performed heavy physical activities without significant difficulty. After developing another episode of upper respiratory symptoms, their symptoms relapsed. They have resumed oxymatrine but experienced increasing myalgia as the fatigue improved.

echoviruses = settings: in vitro; mechanism not defined; cited from earlier work
enterovirus [4] = test: case report Example 10, acute enterovirus infection of the gastrointestinal tract; type: in vivo, human
Text: A person developed subacute onset of severe fatigue, nausea, anorexia and progressive weight loss of 20 pounds following an upper respiratory infection.

enterovirus protein = test: immunoperoxidase staining of stomach biopsy before and after oxymatrine; type: in vivo, human; settings: one patient (case 5), after taking oxymatrine for 6 months, correlated with symptomatic improvement
Text: FIG. 2 illustrates immunoperoxidase staining for enterovirus protein in a stomach biopsy before oxymatrine therapy for one patient. […] The decrease in viral protein correlated with significant symptomatic improvement.

[5] = test system: interleukin-12P35+P40/interleukin-10; test: cytokine gene expression in CFS patients at start of and during oxymatrine therapy (FIG. 5); type: in vivo, human
Text: • FIG. 1 graphically illustrates the comparison of Th1/Th2 (interleukin-12p35+P40/interleukin-4 + interleukin-10, RQ is the gene expression ratio) gene expression of patients who are functional (able to work) versus totally disability (not able to work). The difference therein is statistically significant (p<0.01, pair t test). • FIG. 2 illustrates the infected human stomach (biopsy of case 5 stained with 5D8/1) before treatment with oxymatrine. • FIG. 3 illustrates the stomach biopsy of case 5 stained with 5 D8/1 after taking oxymatrine for 6 months. • FIG. 4 graphically illustrates a cytokine gene expression study before and after oxymatrine (RQ is the gene expression ratio). • FIG. 5 graphically illustrates cytokine gene expression of interleukin-12P35+P40/interleukin-10 in tissue from CFS patients at the start of (pre-oxymatrine) and during oxymatrine therapy (n=17).

[6] = case report Example 11, treating diarrhea; type: in vivo, human; settings: after starting 200 mg bid
Text: A person developed continuing watery diarrhea, as many as twenty episodes a day, and mild fatigue for three months. Laboratory studies and stool work-up were completely negative. […] They failed Asacol therapy.

enterovirus [7] = test: open-label, controlled oxymatrine clinical study in ME/CFS patients with enterovirus infection; type: in vivo, human
Description: An open-label, controlled study was conducted on patients who fulfilled the international criteria for myalgic encephalomyelitis (ME)/chronic fatigue syndrome (CFS) and had virological evidence of enterovirus infection.
One hundred patients took oxymatrine at dose of 200-300 mg twice a day with or without food for a minimum of three months. Patients who could not complete the course due to side effects or intolerance were considered as failures (intent-to-treat analysis). Of the first group, 52% (52/100) responded to oxymatrine, as compared to 6% (7/114) of the control groups (p <0.000001, X^2 test). Of the next 104 patients, 52% responded to treatment. […] Fifty-three percent (57/107) of patients with elevated […] (CVB) and echovirus (Ech) antibody responded to therapy and 50% (49/97) of patients with non-typeable EV infections improved (NS, X^2 test). Fifty-two percent (47/91) of patients with positive EV protein in stomach biopsies responded, whereas 56% (5/9) of patients with negative biopsies responded (NS, X^2 test).

[8] = side effects in 176 patients having taken oxymatrine

In the case of `O=C1CCC[C@@H]2[C@H]3CCC[N+]4([O-])CCC[C@@H](CN12)[C@@H]34` (stereo partly shown) [oxymatrine], the clinical outcome (enterovirus [1]; three months after stopping oxymatrine) is reported as “only had mild symptoms and was able to return to part-time work and regular exercise”, the adverse symptoms (enterovirus [1]; two months after taking the medication, 500 mg per day, continued two weeks, resolved after stopping) is reported as “severe diffuse ulcerations of the mouth mucosa, increasing headache, sinus congestion and severe myalgia” and the diarrhea (enterovirus [2]; after starting oxymatrine) is reported as “resolved within one week”. For the same compound, the “effect of decrease of medication to half the dose” value (enterovirus [2]; resolved after increasing the dosage) was “relapse of the symptoms”, the clinical outcome (enterovirus [3]; after taking oxymatrine for six months) was “felt well” and the clinical outcome (enterovirus [3]; at the end of three months, minimal discomfort in a few muscle groups) was “felt well”. The “routine laboratory tests including CBC, chemistry panel and creatine phosphokinase (CPK)” value (enterovirus [3]; one week after starting oxymatrine) was “normal”, the “myalgia (pain)” value (enterovirus [3]; three days after taking 300 mg bid, 7/10 before) was 10/10 and the “growth inhibition of echoviruses in cell cultures” value (echoviruses) was “growth inhibition”. For the same compound, the symptoms (enterovirus [4]; 200 mg bid) was “promptly responded”, the activity (enterovirus [4]; after taking oxymatrine for ten days) was “resumed their normal activity” and the “viral protein by staining with enterovirus-specific monoclonal antibody (5 D8/1)” value (enterovirus protein) was “significant reduction”. The “increase of the interleukin-12P35+P40/interleukin-10 ratio (gene expression)” value ([5]; seven responders of n=17, pre-oxymatrine vs during therapy) was “greater than 2 fold”, the “interleukin-12P35+P40/interleukin-10 ratio (gene expression)” value ([5]; ten non-responders of n=17, pre-oxymatrine vs during therapy) was “remained the same or decreased” and the diarrhea [6] was “resolved completely in a few days”. For the same compound, the “changes of other chemistry parameters and complete blood counts (CBC)” value (enterovirus [7]; compared to baseline values) was “no significant changes”, the “patients who relapsed responded to restart of oxymatrine” value (enterovirus [7]; eighty-seven percent) was 13/15 and the “patients responded to oxymatrine” value (enterovirus [7]; first group (52/100), 200-300 mg twice a day, minimum three months, intent-to-treat, control groups 6% (7/114), p <0.000001) was 52%. The “patients reporting transient, moderate increase in pre-existing symptoms” value (enterovirus [7]; human, in vivo) was “more than 50%”, the “patients with elevated blood pressure that prompted discontinuation of therapy” value (enterovirus [7]; human, in vivo) was 2/204 and the “serious complications during therapy” value (enterovirus [7]; human, in vivo) was “No serious complications”. The tolerability (enterovirus [7]; most of the patients, except for variable increase of pre-existing symptoms during the first 1-2 days of maximal doses) was “tolerated oxymatrine well”, the “patients responded to treatment” value (enterovirus [7]; next 104 patients) was 52% and the “patients responded to therapy” value (enterovirus [7]; patients with elevated chrysanthemum virus B (CVB) and echovirus (Ech) antibody, fifty-three percent) was 57/107. The patients responded (enterovirus [7]; patients with negative biopsies (5/9)) was 56%, the patients improved (enterovirus [7]; patients with non-typeable EV infections (49/97)) was 50% and the patients responded (enterovirus [7]; patients with positive EV protein in stomach biopsies, fifty-two percent) was 47/91. The “patients with transient increase in potassium” value (enterovirus [7]; returned to normal without specific treatment) was 2/204, the “Diffuse rashes: % of total patients” value (enterovirus [7]; [8]) was under 1% and the “Dry eyes and mouth: % of total patients” value (enterovirus [7]; [8]) was 1%. The “Fevers: % of total patients” value (enterovirus [7]; [8]) was 2%, the “Herpes simplex virus outbreak after discontinuation: % of total patients” value (enterovirus [7]; [8]) was 1% and the “Increase in blood pressure: % of total patients” value (enterovirus [7]; [8]) was 1%. The “Increase in edema: % of total patients” value (enterovirus [7]; [8]) was 1%, the “Increased abdominal pain: % of total patients” value (enterovirus [7]; [8]) was 6% and the “Increased bladder symptoms: % of total patients” value (enterovirus [7]; [8]) was 2%. The “Increased diarrhea: % of total patients” value (enterovirus [7]; [8]) was 4%, the “Increased dizziness: % of total patients” value (enterovirus [7]; [8]) was 2% and the “Increased fatigue: % of total patients” value (enterovirus [7]; [8]) was 4%. The “Increased headache: % of total patients” value (enterovirus [7]; [8]) was 8%, the “Increased insomnia: % of total patients” value (enterovirus [7]; [8]) was 1% and the “Increased myalgia: % of total patients” value (enterovirus [7]; [8]) was 30%. For the same compound, the “Increased nausea: % of total patients” value (enterovirus [7]; [8]) was 6%, the “Increased palpitation, chest pain: % of total patients” value (enterovirus [7]; [8]) was 3% and the “Increased polyarthralgia: % of total patients” value (enterovirus [7]; [8]) was 1%. The “Increased sinus congestion: % of total patients” value (enterovirus [7]; [8]) was 3%, the “Inflammation of skin lesion: % of total patients” value (enterovirus [7]; [8]) was 1% and the “New rashes: % of total patients” value (enterovirus [7]; [8]) was under 1%. For the same compound, the “Seizure (petit mal): % of total patients” value (enterovirus [7]; [8]) was under 1%, the “Weight gain: % of total patients” value (enterovirus [7]; [8]) was 1% and the “patients who stopped oxymatrine due to intolerable side effects” value (enterovirus [7]; within the first eight weeks, twenty patients) was 10%. For the same compound, the “patients relapsed after discontinuation of oxymatrine” value (enterovirus [7]; within two days to one month after discontinuation, fifty-nine percent) was 19/32.

From EP2307018B1, “OXYMATRINE COMPOSITIONS AND USE THEREOF FOR TREATING AND PREVENTING CHRONIC INFECTIOUS DISEASES” (Chia, John K.S., priority 2008, dated 2010)
